Data on one molecule can be found in ChEMBL document CHEMBL4138296, “Nonacidic Chemotype Possessing N-Acylated Piperidine Moiety as Potent Farnesoid X Receptor (FXR) Antagonists” (ACS Med Chem Lett, 2018).

Molecules are shown by their SMILES. Calls of active or inactive are those of the source. The calls are words filed in the database; no cut-off is given here.

Experiment [1] deals with T1, Peroxisome proliferator-activated receptor alpha (Homo sapiens) (UniProt Q07869).
T1 sequence (whole entry): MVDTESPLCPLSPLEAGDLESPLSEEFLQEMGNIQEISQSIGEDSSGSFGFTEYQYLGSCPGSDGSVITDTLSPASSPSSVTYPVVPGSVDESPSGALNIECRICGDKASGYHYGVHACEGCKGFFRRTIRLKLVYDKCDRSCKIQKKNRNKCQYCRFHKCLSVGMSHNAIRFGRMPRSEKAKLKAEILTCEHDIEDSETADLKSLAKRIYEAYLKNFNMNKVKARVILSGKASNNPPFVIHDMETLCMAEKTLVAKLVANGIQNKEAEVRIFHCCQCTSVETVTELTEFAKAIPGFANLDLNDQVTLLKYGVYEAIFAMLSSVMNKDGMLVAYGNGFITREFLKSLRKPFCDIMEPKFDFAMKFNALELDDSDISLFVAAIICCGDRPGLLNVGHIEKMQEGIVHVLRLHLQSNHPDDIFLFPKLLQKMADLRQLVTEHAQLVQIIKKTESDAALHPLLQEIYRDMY
Nature of the experiment: Agonist activity at PPARalpha (unknown origin) at 1 uM by luciferase reporter gene assay.

For the next experiment, the system named is 3T3-L1. As to the kind of experiment: Antiadipogenic activity in mouse 3T3L1 cells assessed as reduction in intracellular lipid droplets after 6 days by Oil Red O staining based assay. Type of experiment: functional, cell-based.
Experiment [2] addresses T2, Oxysterols receptor LXR-alpha (Homo sapiens) (UniProt Q13133).
T2 sequence (whole entry): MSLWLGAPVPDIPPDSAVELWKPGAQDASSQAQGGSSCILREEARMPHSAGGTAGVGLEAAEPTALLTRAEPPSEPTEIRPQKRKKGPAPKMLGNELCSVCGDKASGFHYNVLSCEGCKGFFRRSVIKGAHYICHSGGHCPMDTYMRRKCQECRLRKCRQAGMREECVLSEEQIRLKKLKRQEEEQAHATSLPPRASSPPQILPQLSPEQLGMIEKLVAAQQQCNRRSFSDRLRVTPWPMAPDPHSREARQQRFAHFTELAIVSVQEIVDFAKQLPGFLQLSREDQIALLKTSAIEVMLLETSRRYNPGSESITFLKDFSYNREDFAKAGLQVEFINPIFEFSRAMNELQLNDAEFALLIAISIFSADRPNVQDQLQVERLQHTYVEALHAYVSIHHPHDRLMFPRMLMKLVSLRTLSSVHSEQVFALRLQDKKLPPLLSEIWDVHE
Nature of the experiment: Antagonist activity at LXRalpha (unknown origin) assessed as inhibition of TO901317-induced response at 1 uM by luciferase reporter gene assay. (Reporter assays use an easily measured gene product as a stand-in for the process of interest.)

In a further experiment the target is T3, Bile acid receptor (Homo sapiens, UniProt Q96RI1).
T3 sequence (Q96RI1 whole entry): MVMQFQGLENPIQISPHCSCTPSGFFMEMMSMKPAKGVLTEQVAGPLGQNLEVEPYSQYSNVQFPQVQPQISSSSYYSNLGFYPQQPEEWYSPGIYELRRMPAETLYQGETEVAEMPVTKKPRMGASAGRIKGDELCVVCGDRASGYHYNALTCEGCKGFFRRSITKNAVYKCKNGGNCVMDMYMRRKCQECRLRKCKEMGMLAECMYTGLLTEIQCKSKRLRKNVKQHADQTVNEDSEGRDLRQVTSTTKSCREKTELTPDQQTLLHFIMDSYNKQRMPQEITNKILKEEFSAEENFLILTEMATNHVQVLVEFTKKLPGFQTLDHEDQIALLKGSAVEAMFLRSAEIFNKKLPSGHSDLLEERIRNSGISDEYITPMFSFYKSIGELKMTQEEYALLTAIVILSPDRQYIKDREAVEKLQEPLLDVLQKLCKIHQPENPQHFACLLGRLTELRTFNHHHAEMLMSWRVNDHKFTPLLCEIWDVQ
As to the kind of experiment: Antagonist activity at GST-tagged FXR LBD (unknown origin) assessed as inhibition of GW4064-induced fluorecein-labeled SRC2-2 coactivator recruitment by Lanthascreen TR-FRET assay.

Experiment [3] addresses T4, Peroxisome proliferator-activated receptor gamma (Homo sapiens) (UniProt P37231).
T4 sequence (whole entry): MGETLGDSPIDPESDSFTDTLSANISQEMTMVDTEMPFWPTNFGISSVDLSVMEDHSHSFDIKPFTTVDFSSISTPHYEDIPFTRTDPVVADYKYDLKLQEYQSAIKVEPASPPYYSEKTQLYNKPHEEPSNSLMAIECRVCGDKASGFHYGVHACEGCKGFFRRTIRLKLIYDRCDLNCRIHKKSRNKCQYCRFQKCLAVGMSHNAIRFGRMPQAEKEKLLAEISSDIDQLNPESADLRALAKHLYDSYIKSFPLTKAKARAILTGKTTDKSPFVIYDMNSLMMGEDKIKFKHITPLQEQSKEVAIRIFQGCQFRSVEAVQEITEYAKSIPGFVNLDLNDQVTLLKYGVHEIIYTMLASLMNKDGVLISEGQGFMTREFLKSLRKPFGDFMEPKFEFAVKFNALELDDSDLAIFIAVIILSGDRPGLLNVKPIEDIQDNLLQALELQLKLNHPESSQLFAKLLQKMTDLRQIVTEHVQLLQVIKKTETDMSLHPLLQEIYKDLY
Nature of the experiment: Agonist activity at PPARgamma (unknown origin) at 1 uM by luciferase reporter gene assay.

In experiment [4] the target is T5, Retinoic acid receptor alpha (Homo sapiens) (UniProt P10276).
T5 sequence (whole entry): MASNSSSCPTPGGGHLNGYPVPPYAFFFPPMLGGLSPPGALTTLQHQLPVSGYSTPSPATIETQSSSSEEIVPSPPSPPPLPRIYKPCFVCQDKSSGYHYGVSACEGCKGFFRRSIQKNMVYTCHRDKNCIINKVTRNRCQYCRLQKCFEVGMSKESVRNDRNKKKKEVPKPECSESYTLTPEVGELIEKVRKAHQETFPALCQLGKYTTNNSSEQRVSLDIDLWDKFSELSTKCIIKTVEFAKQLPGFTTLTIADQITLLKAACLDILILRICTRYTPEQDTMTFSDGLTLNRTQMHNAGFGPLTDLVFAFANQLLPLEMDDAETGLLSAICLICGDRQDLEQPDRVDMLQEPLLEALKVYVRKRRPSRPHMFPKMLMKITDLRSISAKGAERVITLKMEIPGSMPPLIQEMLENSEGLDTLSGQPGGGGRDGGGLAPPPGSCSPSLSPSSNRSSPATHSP
As to the kind of experiment: Agonist activity at RARalpha (unknown origin) at 1 uM by luciferase reporter gene assay.

Experiment [5] deals with T6, G-protein coupled bile acid receptor 1 (Homo sapiens) (UniProt Q8TDU6).
T6 sequence (whole entry): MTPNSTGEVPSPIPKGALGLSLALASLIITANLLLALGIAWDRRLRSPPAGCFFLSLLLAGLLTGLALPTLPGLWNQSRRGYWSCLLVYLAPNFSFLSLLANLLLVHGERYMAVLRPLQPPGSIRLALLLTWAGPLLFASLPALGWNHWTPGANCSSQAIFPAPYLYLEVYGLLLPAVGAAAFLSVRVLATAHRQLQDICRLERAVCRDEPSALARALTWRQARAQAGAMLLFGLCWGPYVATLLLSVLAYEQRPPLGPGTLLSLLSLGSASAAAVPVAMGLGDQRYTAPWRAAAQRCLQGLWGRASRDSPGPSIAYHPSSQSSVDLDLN
Nature of the experiment: Antagonist activity at TGR5 (unknown origin) assessed as inhibition of lithocholic acid-induced response at 1 uM by luciferase reporter gene assay. Type of experiment: functional.

Consider `Cc1ccc2nc([C@H](CC3CCN(C(=O)C(C)C)CC3)N3C(=O)CN(c4ccc(Oc5ccccc5)cc4)C3=O)n(C)c2c1`, for which the result in experiment [1], in experiment [3] and in experiment [4] was inactive. Further, in the experiment with 3T3-L1, the Activity entry was “Dose-dependent effect”. Besides, the inhibition entry in experiment [2] and in experiment [5] was “inactive” throughout. For the same molecule, at Bile acid receptor, the IC50 stood at 35 nM.

The IC50 is the concentration that gives 50% inhibition.
